Measured values published in patent US9289471B2, “Product and process for liquefaction of mucus or sputum” (National Jewish Health, priority 2002, dated 2016).

How the values were obtained:
Set-up in all cases: species or system human
[1] = Magnetic microrheometry: viscoelasticity (log G*) of CF sputum; details: for decrease in log G* (before minus after exposure): 20 min (FIG. 4A); for log G* after treatment: 37° C., 20 minutes; for log G* after treatment / log G* before treatment: mean ± standard error; for decline in viscoelasticity (log G*): Trx (30 μM), TR (0.1 μM); for log G* before treatment: baseline, 4 samples
Method: Viscoelastic change in response to treatment was measured by means of a magnetic microrheometer as developed by King (King M., Magnetic microrheometer. In: Methods in Bronchial Mucology, edited by Braga P C, and Allegra L. New York: Raven Press, 1988, p. 73-83). An 80-120 μm steel sphere was placed in a 10 mg sputum sample. An electromagnet was used to oscillate this sphere, whose image was projected onto a pair of photocells via a microscope. […] G* was the mechanical impedance or vector sum of viscosity and elasticity. For Trx and NADPH dose response experiments, log G* at 10 rad/s was measured before any treatment (baseline), and then after 20 minute incubation with no treatment, diluent (H2O), or Trx with reducing system. All treatments were administered to the sample in a volume of H2O equal to 10% of total sample volume. One measurement was performed per aliquot of sample.
Magnetic microrheometry was performed to determine the effect of Trx and its reducing system on sputum viscosity. Measurements were performed on sputum samples before and after incubation with the Trx reducing system (Table 1) to determine the change in log G* (viscoelasticity).
In the experiment shown in FIG. […] Each column represents the mean±standard error for 4 samples (♦Statistically significant from H2O diluent value). […]

DNA in CF sputum = assay: Total DNA content of sputum gel and liquid phases by Hoechst assay; details: Trx (30 μM) + reducing system, 20 min, mean ± S.D., n=5 (FIG. 6)
Method: 275 μl of CF sputum was incubated with no treatment, 25 μl of H2O, or 25 μl of H2O containing Trx (30 μM)+TR (0.1 μM) and NADPH (2 mM). After 20 minute incubation at 37° C., 100 μl of H2O was added to each sample, followed by centrifugation (22,000×g) for 10 minutes. Resulting gel and liquid phases were separated and incubated with an equal volume of digestion solution consisting of 100 mM Tris Cl, 5 mM EDTA, 200 mM NaCl, 0.5% Tween 20, and 1 mg/ml proteinase K for 4 hours at 50° C. DNA was purified from liquid and gel phases by phenol/chloroform extraction and resuspended in 100 μl of TE buffer, pH 8.0. DNA concentrations were determined by Hoechst assay (Labarca and Paigen, Anal Biochem 102:344-352, 1980) using an F-2000 fluorometer (Hitachi, Schaumburg, Ill.) with an excitation wavelength of […] and an emission wavelength of 555 nm. Salmon testis DNA, dissolved in TE buffer, was used to establish the standard curve.
The presence of high amounts of extracellular DNA in CF airway secretions contributes to the excessive viscoelasticity of CF sputum. To evaluate what effect Trx has on the solubility of DNA in sputum, sputum samples (275 μl) were incubated with either no additions, diluent (H2O), or Trx (30 μM)+reducing system for 20 minutes, and then separated into gel (insoluble) and liquid (soluble) phases. […]

[2] = Compaction assay: percent liquid fraction of CF sputum; details: for percent liquid fraction: 20 min (FIG. 3A)
Method: CF sputum stored at −80° C. was thawed at room temperature and aliquoted into 1.5 ml Eppendorf centrifuge tubes at volumes of 275 μl using a positive displacement pipette (Rainin, Emeryville, Calif.). Sputum samples were subjected to either diluent (H2O), Trx+TR+NADPH, GSH+glutathione reductase+NADPH, dithiothreitol (DTT) or N-acetylcysteine treatment by the addition of 25 μl of H2O containing the appropriate molar concentration of each agent. After brief vortexing (˜1 second), sample tubes were loaded onto a microtube rotisserie (Barnstead, Dubuque, Iowa) and incubated at 37° C. for 20 minutes. Samples were then processed for compaction assay according to methodology originated by Daugherty et al. (Daugherty et al., Biomaterials 16:553-558, 1995). To perform the assay, the contents of each sample were loaded into 100 μl glass micro-capillary tubes (Fisher Scientific) that had been previously welded to 200 μl pipette tips in order to achieve a tight fit. Three modified capillary tubes were used to draw up >90% of each sputum sample. Capillary tubes were then removed from their pipette tip, sealed with clay, and centrifuged for 10 minutes in a hematocrit centrifuge (IEC, Needham Heights, Mass.), followed by measurement of the length in millimeters of the gel (solid) and aqueous (liquid) phases in each tube. The percent liquid fraction of each capillary tube was calculated by dividing aqueous phase length by total length (gel+aqueous)×100. The three measurements of the liquid fraction (%) derived from each sample were then averaged to generate a single value for each treatment condition.
Due to abnormal ion transport caused by defects in the CFTR gene, airway secretions in CF patients are often desiccated. As a consequence, purulent CF sputum is comprised largely of a rigid and nonflowing biopolymer matrix, often referred to as gel phase, and lesser amounts of soluble, liquid phase. To assess the effect of Trx on the ratios of these two phases in sputum, compaction assay measurements were performed. […] After 20 minute incubation, the liquid fraction of each sample was determined by compaction assay.
To examine the effect of NADPH, additional samples from different donors were treated with 30 μM Trx, 0.1 μM TR and either 0, 0.2, 0.6, 1.0 or 2 mM NADPH for 20 minutes.
To assess the reproducibility of compaction assay measurements, sputum samples from three different CF donors were separated into aliquots and frozen. Specifically, freshly isolated CF sputum from three different donors (A, B, C) was separated into 275 μl aliquots and frozen. […] Results obtained from three independent experiments performed on each donor sample were used to evaluate assay reproducibility. On three consecutive days, aliquots were thawed, and treated with water, Trx and its reducing system, dithiothreitol (DTT), or no treatment.
The effectiveness of Trx in liquefying sputum was compared with other monothiol and dithiol reducing agents. Sputum samples were aliquoted and treated with Trx or GSH for 20 minutes and percent liquid determined by compaction assay. Initial compaction assay experiments compared the potencies of the Trx and GSH reducing systems in liquefaction of sputum in the presence of equimolar concentrations of NADPH. […] The analysis of Trx and NAC efficacy also was determined after 20 minute incubation, but on a different set of sputum samples.

[3] = 10 μM Trx + 0.1 μM TR + 2 mM NADPH
[4] = 30 μM Trx + 0.1 μM TR + 2 mM NADPH

Trx: Lyophilized recombinant E. coli Trx from Promega; protein disulfide reductase, used with its reducing system (TR + NADPH)
decrease in log G* (before minus after exposure) ([1]; 3 μM Trx + 0.1 μM TR + 2 mM NADPH): 0.26 log units
log G* after treatment ([1]; 3 μM Trx + 0.1 μM TR and 2 μM NADPH): 3.11 ± 0.04
decrease in log G* (before minus after exposure) [1, 3]: 0.39 log units
log G* after treatment ([1]; 10 μM Trx + 0.1 μM TR and 2 μM NADPH): 2.94 ± 0.05
decrease in log G* (before minus after exposure) [1, 4]: 0.65 log units
log G* after treatment ([1]; 30 μM Trx + 0.1 μM TR and 2 μM NADPH): 2.63 ± 0.04
sputum viscoelasticity ([1]; 20 minute treatment with 3, 10, or 30 μM Trx): significantly diminished
decline in viscoelasticity (log G*) ([1]; 0.2 mM NADPH (FIG. 4B)): 0.16 log units
decline in viscoelasticity (log G*) ([1]; 0.6 mM NADPH (FIG. 4B)): 0.26 log units
decline in viscoelasticity (log G*) ([1]; 2 mM NADPH (FIG. 4B)): 0.39 log units
log G* before treatment ([1]; aliquots for 3 μM Trx): 3.37 ± 0.06
log G* before treatment ([1]; aliquots for 10 μM Trx): 3.33 ± 0.06
log G* before treatment ([1]; aliquots for 30 μM Trx): 3.28 ± 0.04
DNA content of gel (insoluble) phase (DNA in CF sputum): 0.55 ± 0.31 mg
DNA content of liquid (soluble) phase (DNA in CF sputum): 0.57 ± 0.37 mg
percent liquid fraction [2, 3]: 34.8±6.6%
percent liquid fraction [2, 4]: 54.6±10.4%
percentage of sputum present in the liquid phase ([2]; 30 μM Trx + 0.1 μM TR + 2 mM NADPH, 20 min, different donors (FIG. 1B)): 70.55±18.13%
percentage of sputum present in the liquid phase ([2]; 30 μM Trx + 0.1 μM TR without NADPH, 20 min (FIG. 1B)): 2.9%±1.3
percent liquid fraction ([2]; 60 μM Trx + 0.1 μM TR + 2 mM NADPH): 67.0±8.0%
3 day range of percent of sputum in the liquid state ([2]; donor B, 30 μM Trx with reducing system): 46-51%
range of percent liquid values ([2]; donor C, 30 μM Trx with reducing system): 62-81%
